The text below walks through data of ChEMBL document CHEMBL5247610, “Discovery of 5-((4-(pyridin-3-yl)pyrimidin-2-yl)amino)-1H-indole-2-carboxamide derivatives as novel anti-cancer agents targeting Nur77” (Eur J Med Chem, 2022).

In series [1] the test system is HeLa. As to the kind of experiment: Antiproliferative activity against human HeLa cells assessed as cell viability at 10 uM incubated for 48 hrs by MTT assay. In kind it is functional. As to conditions: read-out: Activity.
Series [2] relates to HepG2. As to the kind of experiment: Antiproliferative activity against human HepG2 cells assessed as cell viability at 10 uM incubated for 48 hrs by MTT assay. Format: functional. As to conditions: read-out: Activity. Background: Formazan colour is commonly taken as a measure of viable cells.
A short description of series [3]: Cytotoxicity against human L02 cells assessed as cell viability at 10 uM incubated for 48 hrs by MTT assay. In kind it is toxicity, cell-based. As to conditions: read-out: Activity.
Series [4] deals with HepG2. As to the kind of experiment: Antiproliferative activity against human HepG2 cells assessed as reduction in cell viability incubated for 48 hrs by MTT assay. In kind it is functional, cell-based. To be noted: HepG2, 48 h.
In series [5] the test system is Huh-7. As to the kind of experiment: Antiproliferative activity against human Huh-7 cells assessed as reduction in cell viability incubated for 48 hrs by MTT assay. In kind it is functional, cell-based. To be noted: Huh-7, 48 h.
Series [6] deals with SMMC-7721. As to the kind of experiment: Antiproliferative activity against human SMMC-7721 cells assessed as reduction in cell viability incubated for 48 hrs by MTT assay. Format: functional, cell-based. To be noted: SMMC-7721, 48 h.
Series [7] concerns HeLa. Put plainly: Antiproliferative activity against human HeLa cells assessed as reduction in cell viability incubated for 48 hrs by MTT assay. Format: functional, cell-based.
Series [8] relates to MDA-MB-231. As to the kind of experiment: Antiproliferative activity against human MDA-MB-231 cells assessed as reduction in cell viability incubated for 48 hrs by MTT assay. In kind it is functional, cell-based. As to conditions: MDA-MB-231, 48 h.
In series [9] the test system is A549. Put plainly: Antiproliferative activity against human A549 cells assessed as reduction in cell viability incubated for 48 hrs by MTT assay. Format: functional, cell-based. As to conditions: A549, 48 h.
The nature of series [10]: Cytotoxicity against human L02 cells assessed as reduction in cell viability incubated for 48 hrs by MTT assay. Format: toxicity, cell-based.
Series [11] can be described thus: Selectivity index, ratio of IC50 for human L02 cells to IC50 for human HepG2 cells by MTT assay. In kind it is toxicity. As to conditions: L02 cells versus HepG2 cells, read-out: Ratio IC50.
Series [12] can be described thus: Selectivity index, ratio of IC50 for human L02 cells to IC50 for human Huh-7 cells by MTT assay. As to conditions: L02 cells versus Huh-7 cells, read-out: Ratio IC50. Format: toxicity.
Series [13] in a line: Selectivity index, ratio of IC50 for human L02 cells to IC50 for human SMMC-7721 cells by MTT assay. Format: toxicity. As to conditions: L02 cells versus SMMC-7721 cells, read-out: Ratio IC50.
Series [14] can be described thus: Selectivity index, ratio of IC50 for human L02 cells to IC50 for human HeLa cells by MTT assay. In kind it is toxicity. As to conditions: L02 cells versus HeLa cells, read-out: Ratio IC50.
Series [15] is described as follows: Selectivity index, ratio of IC50 for human L02 cells to IC50 for human MDA-MB-231 cells by MTT assay. Format: toxicity. As to conditions: L02 cells versus MDA-MB-231 cells, read-out: Ratio IC50.
Series [16] can be described thus: Selectivity index, ratio of IC50 for human L02 cells to IC50 for human A549 cells by MTT assay. Format: toxicity. To be noted: L02 cells versus A549 cells, read-out: Ratio IC50.
Series [17] has as its target T1, Nuclear receptor subfamily 4immunitygroup A member 1 (Homo sapiens, UniProt P22736). Put plainly: Binding affinity to pBind-Nur77-LBD (unknown origin) transfected in HEK293T cells co-transfected with pG5-Luc assessed as inhibition of Nur77 transcriptional activity by measuring inhibition of Nur77-driven luciferase activity at 2 uM incubated for 12 hrs by luciferase reporter gene assay. Format: cell-based. To be noted: filed as modulator.

Series [18] is described as follows: Toxicity in Zebra fish AB embryo assessed as mortality rate at 0.5 uM incubated for 24 hrs. To be noted: zebrafish, read-out: Activity. Set-up: species or system Danio rerio.
Series [19] can be described thus: Toxicity in Zebra fish AB embryo assessed as mortality rate at 0.5 uM incubated for 72 hrs. As to conditions: zebrafish, read-out: Activity. Details: species or system Danio rerio.
A short description of series [20]: Toxicity in Zebra fish AB embryo assessed as mortality rate at 1 uM incubated for 24 hrs. Details: species or system Danio rerio. To be noted: zebrafish, read-out: Activity.
The nature of series [21]: Toxicity in Zebra fish AB embryo assessed as mortality rate at 1 uM incubated for 72 hrs. Set-up: species or system Danio rerio. To be noted: zebrafish, read-out: Activity.
Series [22] addresses T1, Nuclear receptor subfamily 4immunitygroup A member 1. Put plainly: Binding affinity to Nur77-LBD (unknown origin).
For series [23] the target is unchanged. Put plainly: Binding affinity to Nur77 (unknown origin).

Calls of active or inactive are those of the source. No cut-off for these calls is given here.

T1 sequence (P22736 whole entry, the tested form may be a part): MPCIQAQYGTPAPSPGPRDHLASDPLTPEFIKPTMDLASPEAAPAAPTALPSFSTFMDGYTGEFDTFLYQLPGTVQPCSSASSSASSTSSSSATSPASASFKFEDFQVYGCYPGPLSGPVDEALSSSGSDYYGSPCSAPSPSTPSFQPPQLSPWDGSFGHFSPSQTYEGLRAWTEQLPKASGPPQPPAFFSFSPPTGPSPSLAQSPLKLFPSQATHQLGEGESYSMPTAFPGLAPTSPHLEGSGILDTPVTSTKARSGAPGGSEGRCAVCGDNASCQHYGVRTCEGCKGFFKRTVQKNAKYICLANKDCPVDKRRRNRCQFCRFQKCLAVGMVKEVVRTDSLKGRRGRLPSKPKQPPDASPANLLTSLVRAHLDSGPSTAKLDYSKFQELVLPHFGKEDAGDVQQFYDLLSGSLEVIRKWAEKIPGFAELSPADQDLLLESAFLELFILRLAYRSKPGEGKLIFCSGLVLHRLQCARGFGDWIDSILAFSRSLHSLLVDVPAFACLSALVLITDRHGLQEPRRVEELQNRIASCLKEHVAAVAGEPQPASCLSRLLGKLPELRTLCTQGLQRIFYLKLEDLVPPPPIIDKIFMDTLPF

`COc1ccc(NC(=O)c2cc3cc(Nc4nccc(-c5cccnc5)n4)ccc3[nH]2)c(C)c1`: the viability at 10 µM in [1] came out at 54.8%; in [2], 82.9%. In [3], the viability at 48 h, 10 µM amounted to 69%.

As for `O=C(NC12CC3CC(CC(C3)C1)C2)c1cc2cc(Nc3nccc(-c4cccnc4)n3)ccc2[nH]1`, the values for the viability at 10 µM in series [1] and in [2] were 124% and 83.4%, respectively. Moreover, in [3], the viability at 48 h, 10 µM was determined as 81.3%.

On to `O=C(NCc1cccc(F)c1)c1cc2cc(Nc3nccc(-c4cccnc4)n3)ccc2[nH]1`, for which the viability at 10 µM in series [1] came out at 80%; in [2], 82.5%. For the same compound, the viability at 48 h, 10 µM in series [3] was determined as 71.1%.

With `Cc1ccc(NC(=O)c2cc3cc(Nc4nccc(-c5cccnc5)n4)ccc3[nH]2)cc1Nc1nccc(-c2cccnc2)n1`, the viability at 10 µM turned out to be 95.9% in series [1] and 86.5% in [2]. Moreover, the viability at 48 h, 10 µM in series [3] came to 79.6%.

As for `COc1ccc(NC(=O)c2cc3cc(Nc4nccc(-c5cccnc5)n4)ccc3[nH]2)cc1OC`, the figures for the viability at 10 µM in series [1] and in [2] were 74.4% and 109%, respectively. For the same compound, the viability at 48 h, 10 µM in [3] came out at 91.9%.

`CC1=C(O)C(=O)C=C2C1=CC=C1[C@@]2(C)CC[C@@]2(C)[C@@H]3C[C@](C)(C(=O)O)CC[C@]3(C)CC[C@]12C` [CELASTROL]: the viability at 10 µM is 49.2% in series [1] and 18.7% in series [2]. In addition, the viability at 48 h, 10 µM in [3] was determined as 13%. Moreover, the IC50 stood at 3730 nM in [4]; 4450 nM in series [5]; 6040 nM in series [6]; 1210 nM in [7]; 1080 nM in [8]; 4990 nM in series [9]. Moreover, in series [10], the IC50 at 48 h was 1120 nM. For the same compound, the selectivity ratio in series [11] stood at 0.3; in [12] it was 0.25; in series [13], 0.19; in series [14], 0.87; in series [15], 1.04; in series [16] it was 0.22. In series [17], the outcome was Active. In addition, the mortality at 24 h, 0.5 µM in series [18] was found to be 30%. Besides, in [19], the mortality at 72 h, 0.5 µM came out at 94%. In addition, the mortality at 24 h, 1 µM in [20] is 100%. For the same compound, in series [21], the mortality at 72 h, 1 µM is 100%.

In the case of `O=C(Nc1ccc(F)c(F)c1F)c1cc2cc(Nc3nccc(-c4cccnc4)n3)ccc2[nH]1`, the viability at 10 µM amounted to 99.8% in [1] and 114% in series [2]. In series [3], the viability at 48 h, 10 µM worked out at 109%.

Turning to `CCN(CC)CCCNC(=O)c1cc2cc(Nc3nccc(-c4cccnc4)n3)ccc2[nH]1`, the values for the viability at 10 µM in [1] and in series [2] were 39.4% and 67.8%, respectively. In [3], the viability at 48 h, 10 µM worked out at 82.6%.

Take `O=C(Nc1ccccc1)c1cc2cc(Nc3nccc(-c4cccnc4)n3)ccc2[nH]1`: the viability at 10 µM in series [1] was determined as 46.4%; in series [2] it was 84.4%. The viability at 48 h, 10 µM in [3] worked out at 70.9%.

As for `COc1ccc2ccccc2c1/C=N/NC(=O)c1cc2cc(Nc3cc(C)nc4c(OC)cccc34)ccc2[nH]1`, the Kd in series [22] stood at 2250 nM.

In the case of `O=C(NCc1ccccc1)c1cc2cc(Nc3nccc(-c4cccnc4)n3)ccc2[nH]1`, the viability at 10 µM was 82% in series [1] and 113% in [2]. Moreover, in [3], the viability at 48 h, 10 µM worked out at 94.8%.

As to `O=C(NCCN1CCCCC1)c1cc2cc(Nc3nccc(-c4cccnc4)n3)ccc2[nH]1`, the values for the viability at 10 µM in series [1] and in series [2] were 24.9% and 53.7%, respectively. Moreover, the viability at 48 h, 10 µM in series [3] was 59.1%.

In the case of `Nc1ccc(Cl)cc1NC(=O)c1cc2cc(Nc3nccc(-c4cccnc4)n3)ccc2[nH]1`, the viability at 10 µM in [1] was found to be 89.5%; in series [2], 97.7%. Also, the viability at 48 h, 10 µM in series [3] came out at 62.3%.

In the case of `Cc1ccc(NC(=O)c2cc3cc(Nc4nccc(-c5cccnc5)n4)ccc3[nH]2)c(N)c1`, the viability at 10 µM in series [1] was 29.5%; in series [2] it was 36.2%. Besides, the viability at 48 h, 10 µM in series [3] was found to be 38.3%.

`O=C(Nc1cncnc1)c1cc2cc(Nc3nccc(-c4cccnc4)n3)ccc2[nH]1`: the figures for the viability at 10 µM in [1] and in series [2] were 108% and 81.6%, respectively. Moreover, the viability at 48 h, 10 µM in [3] amounted to 76.2%.

For `CCCCNC(=O)c1cc2cc(Nc3nccc(-c4cccnc4)n3)ccc2[nH]1`, the viability at 10 µM amounted to 104% in series [1] and 107% in series [2]. The viability at 48 h, 10 µM in series [3] stood at 102%.

`O=C(Nc1cc(Br)ccn1)c1cc2cc(Nc3nccc(-c4cccnc4)n3)ccc2[nH]1`: the viability at 10 µM in series [1] is 115%; in series [2], 85.9%. For the same compound, the viability at 48 h, 10 µM in [3] amounted to 81.1%.

Regarding `COc1cc(NC(=O)c2cc3cc(Nc4nccc(-c5cccnc5)n4)ccc3[nH]2)cc(OC)c1`, the viability at 10 µM in series [1] turned out to be 29.7%; in series [2], 40.8%. In addition, the viability at 48 h, 10 µM in series [3] turned out to be 43.6%.

For `Nc1ccccc1NC(=O)c1cc2cc(Nc3nccc(-c4cccnc4)n3)ccc2[nH]1`, the figures for the viability at 10 µM in series [1] and in series [2] were 33.2% and 76.4%, respectively. Further, the viability at 48 h, 10 µM in series [3] is 71.1%.

In the case of `Cc1ccccc1NC(=O)c1cc2cc(Nc3nccc(-c4cccnc4)n3)ccc2[nH]1`, the viability at 10 µM in [1] was found to be 35.4%; in series [2] it was 90.4%. For the same compound, the viability at 48 h, 10 µM in series [3] worked out at 84.1%.

With `O=C(c1cc2cc(Nc3nccc(-c4cccnc4)n3)ccc2[nH]1)N1CCOCC1`, the results for the viability at 10 µM in series [1] and in series [2] were 36.8% and 78.2%, respectively. In addition, the viability at 48 h, 10 µM in [3] came out at 62.3%.

As for `Cc1ccc(NC(=O)c2cc3cc(Nc4nccc(-c5cccnc5)n4)ccc3[nH]2)cc1C`, the results for the viability at 10 µM in [1] and in series [2] were 43.4% and 69.9%, respectively. Also, the viability at 48 h, 10 µM in series [3] stood at 55.8%.

Take `COc1cc(NC(=O)c2cc3cc(Nc4nccc(-c5cccnc5)n4)ccc3[nH]2)cc(OC)c1OC`: the values for the viability at 10 µM in series [1] and in series [2] were 44.6% and 83.3%, respectively. For the same compound, the viability at 48 h, 10 µM in [3] was 43.6%.

As for `O=C(N/N=C/c1ccncc1)c1cc2cc(Nc3ccnc4ccccc34)ccc2[nH]1`, the Kd in [23] stood at 1170 nM.

Turning to `COc1cccc(NC(=O)c2cc3cc(Nc4nccc(-c5cccnc5)n4)ccc3[nH]2)c1`, the viability at 10 µM in series [1] stood at 30.2%; in series [2], 55.2%. For the same compound, the viability at 48 h, 10 µM in series [3] was determined as 68.6%.

For `Cc1ccc(NC(=O)c2cc3cc(Nc4nccc(-c5cccnc5)n4)ccc3[nH]2)c(C)c1`, the viability at 10 µM in series [1] was determined as 38.3%; in series [2], 59.8%. Also, the viability at 48 h, 10 µM in series [3] was 48.3%.

Broadly, the IC50 is the midpoint of a concentration-inhibition curve. As a reminder, the Kd is the concentration at which binding is half-saturated. Low values mean tighter binding, high ones weaker binding.
